Experimental data from patent US20100076015A1, “Aminopyridine Derivatives” (VANTIA LIMITED, priority 2008, published 2010).

Target: T1, Human KLK1 (Homo sapiens, UniProt P06870)
T1 construct: purchased Callbiochem (Calbiochem)
Assay: Determination of the IC50 for KLK1 (fluorogenic substrate H-DVal-Leu-Arg-AFC)
Assay type: biochemical
Details: 37° C.
Experimental: Determination of the IC50 for KLK1
KLK1 inhibitory activity in vitro was determined using standard published methods (see e.g. Johansen et al., Int. J. Tiss. Reac. 1986, 8, 185; Shori et al., Biochem. Pharmacol., 1992, 43, 1209; Stürzebecher et al., Biol. Chem. Hoppe-Seyler, 1992, 373, 1025). Human KLK1 (Callbiochem) was incubated at 37° C. with the fluorogenic substrate H-DVal-Leu-Arg-AFC and various concentrations of the test compound. Residual enzyme activity (initial rate of reaction) was determined by measuring the change in optical absorbance at 410 nm and the IC50 value for the test compound was determined.

T1 sequence (P06870 25-262): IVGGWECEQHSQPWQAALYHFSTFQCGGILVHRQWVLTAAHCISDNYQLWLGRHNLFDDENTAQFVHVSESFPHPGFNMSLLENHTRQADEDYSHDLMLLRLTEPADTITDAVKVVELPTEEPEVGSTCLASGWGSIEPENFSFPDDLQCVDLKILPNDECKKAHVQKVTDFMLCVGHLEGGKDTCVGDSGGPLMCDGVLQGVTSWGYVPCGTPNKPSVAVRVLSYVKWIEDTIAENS

Row | SMILES | IC50
1 | CCC(C)[C@@H](NC)C(=O)N[C@@H](Cc1ccc(F)c(F)c1)C(=O)NCc1ccc(N)nc1 (single isomer, unassigned) [Example 53] | 11.2 nM
2 | Nc1ccc(CNC(=O)[C@H](Cc2ccc(Cl)c(Cl)c2)NC(=O)[C@H]2CCCN2Cc2ccccc2)cn1 [Example 7, (R)-1-Benzyl-pyrrolidine-2-carboxylic acid [(S)-1-[(6-amino-pyridin-3-ylmethyl)-carbamoyl]-2-(3,4-dichloro-phenyl)-ethyl]-amide] | 10.5 nM
3 | Cc1nc(N)ccc1CNC(=O)[C@H](Cc1cccc2ccccc12)NC(=O)[C@H]1CCCN1C [Example 9, (R)-1-Methyl-pyrrolidine-2-carboxylic acid [(S)-1-[(6-amino-2-methyl-pyridin-3-ylmethyl)-carbamoyl]-2-naphthalen-1-yl-ethyl]-amide] | 6.3 nM
4 | CCN(CC)CC(=O)N[C@@H](Cc1ccc(F)c(F)c1)C(=O)NCc1ccc(N)nc1 [Example 10, (S)—N-(6-Amino-pyridin-3-ylmethyl)-2-(2-diethylamino-acetylamino)-3-(3,4-difluoro-phenyl)-propionamide] | 13.7 nM
5 | CCC(C)[C@H](N)C(=O)N[C@@H](CC1CCCC2CCCCC21)C(=O)NCc1ccc(N)nc1 (stereo partly drawn) [Example 12, (S)-2-Amino-3-methyl-pentanoic acid [(S)-1-[(6-amino-pyridin-3-ylmethyl)-carbamoyl]-2-(decahydro-naphthalen-1-yl)-ethyl]-amide] | 6.3 nM
6 | NCC(=O)N[C@@H](CC1CCCC2CCCCC21)C(=O)NCc1ccc(N)nc1 (stereo partly drawn) [Example 17, (S)-2-(2-Amino-acetylamino)-N-(6-amino-pyridin-3-ylmethyl)-3-(decahydro-naphthalen-1-yl)-propionamide] | 211 nM
7 | C[C@@H](N)C(=O)N[C@@H](CC1CCCC2CCCCC21)C(=O)NCc1ccc(N)nc1 (stereo partly drawn) [Example 18, (R)-2-Amino-N-[(S)-1-[(6-amino-pyridin-3-ylmethyl)-carbamoyl]-2-(decahydro-naphthalen-1-yl)-ethyl]-propionamide] | 5 nM
8 | CNCC(=O)N[C@@H](CC1CCCC2CCCCC21)C(=O)NCc1ccc(N)nc1 (stereo partly drawn) [Example 19, (S)—N-(6-Amino-pyridin-3-ylmethyl)-3-(decahydro-naphthalen-1-yl)-2-(2-methylamino-acetylamino)-propionamide] | 21.6 nM
9 | CCC(C)[C@@H](NC)C(=O)N[C@@H](CC1CCCCC1)C(=O)NCc1ccc(N)nc1 (stereo partly drawn) [Example 21, (R)-3-Methyl-2-methylamino-pentanoic acid {(S)-1-[(6-amino-pyridin-3-ylmethyl)-carbamoyl]-2-cyclohexyl-ethyl}-amide] | 22.8 nM
10 | CCC(C)[C@@H](N)C(=O)N[C@@H](Cc1ccccc1Cl)C(=O)NCc1ccc(N)nc1 (stereo partly drawn) [Example 24, (R)-2-Amino-3-methyl-pentanoic acid [(S)-1-[(6-amino-pyridin-3-ylmethyl)-carbamoyl]-2-(2-chloro-phenyl)-ethyl]-amide] | 27.8 nM
11 | CCC(C)[C@@H](N)C(=O)N[C@@H](Cc1ccccc1C)C(=O)NCc1ccc(N)nc1 (stereo partly drawn) [Example 28, (R)-2-Amino-3-methyl-pentanoic acid {(S)-1-[(6-amino-pyridin-3-ylmethyl)-carbamoyl]-2-o-tolyl-ethyl}-amide] | 32.1 nM
12 | CCC(C)[C@@H](N)C(=O)N[C@@H](Cc1cccc(C#N)c1)C(=O)NCc1ccc(N)nc1 (stereo partly drawn) [Example 31, (R)-2-Amino-3-methyl-pentanoic acid [(S)-1-[(6-amino-pyridin-3-ylmethyl)-carbamoyl]-2-(3-cyano-phenyl)-ethyl]-amide] | 18.1 nM
13 | CCC(C)[C@@H](N)C(=O)N[C@@H](Cc1ccc(F)c(F)c1)C(=O)NCc1ccc(N)nc1 (stereo partly drawn) [Example 32, (R)-2-Amino-3-methyl-pentanoic acid [(S)-1-[(6-amino-pyridin-3-ylmethyl)-carbamoyl]-2-(3,4-difluoro-phenyl)-ethyl]-amide] | 2.8 nM
14 | CCC(C)[C@@H](N)C(=O)N[C@@H](Cc1ccc(F)cc1)C(=O)NCc1ccc(N)nc1 (stereo partly drawn) [Example 33, (R)-2-Amino-3-methyl-pentanoic acid [(S)-1-[(6-amino-pyridin-3-ylmethyl)-carbamoyl]-2-(4-fluoro-phenyl)-ethyl]-amide] | 5.3 nM
15 | CCC(C)[C@@H](N)C(=O)N[C@@H](Cc1ccc2ccccc2c1)C(=O)NCc1ccc(N)nc1 (stereo partly drawn) [Example 34, (R)-2-Amino-3-methyl-pentanoic acid {(S)-1-[(6-amino-pyridin-3-ylmethyl)-carbamoyl]-2-naphthalen-2-yl-ethyl}-amide] | 3.3 nM
16 | CCC(C)[C@@H](N)C(=O)N[C@@H](Cc1ccc(O)cc1)C(=O)NCc1ccc(N)nc1 (stereo partly drawn) [Example 37, (R)-2-Amino-3-methyl-pentanoic acid [(S)-1-[(6-amino-pyridin-3-ylmethyl)-carbamoyl]-2-(4-hydroxy-phenyl)-ethyl]-amide] | 626 nM
17 | CCC(C)[C@@H](N)C(=O)N[C@@H](Cc1cc(F)c(F)cc1F)C(=O)NCc1ccc(N)nc1 (stereo partly drawn) [Example 38, (R)-2-Amino-3-methyl-pentanoic acid [(S)-1-[(6-amino-pyridin-3-ylmethyl)-carbamoyl]-2-(2,4,5-trifluoro-phenyl)-ethyl]-amide] | 9.2 nM
18 | CCC(C)[C@@H](N)C(=O)N[C@@H](Cc1cc(F)cc(F)c1)C(=O)NCc1ccc(N)nc1 (stereo partly drawn) [Example 39, (R)-2-Amino-3-methyl-pentanoic acid [(S)-1-[(6-amino-pyridin-3-ylmethyl)-carbamoyl]-2-(3,5-difluoro-phenyl)-ethyl]-amide] | 5.8 nM
19 | CCC(C)[C@@H](N)C(=O)N[C@@H](Cc1c[nH]c2ccccc12)C(=O)NCc1ccc(N)nc1 (stereo partly drawn) [Example 40, (R)-2-Amino-3-methyl-pentanoic acid [(S)-1-[(6-amino-pyridin-3-ylmethyl)-carbamoyl]-2-(1H-indol-3-yl)-ethyl]-amide] | 6.6 nM
20 | CCC(C)[C@@H](NC)C(=O)N[C@@H](Cc1ccc(F)c(F)c1)C(=O)NCc1ccc(N)nc1 (stereo partly drawn) [Example 43, (R)-3-Methyl-2-methylamino-pentanoic acid [(S)-1-[(6-amino-pyridin-3-ylmethyl)-carbamoyl]-2-(3,4-difluoro-phenyl)-ethyl]-amide] | 2.9 nM
21 | CCC(C)[C@@H](NC)C(=O)N[C@@H](Cc1ccc(F)cc1)C(=O)NCc1ccc(N)nc1 (stereo partly drawn) [Example 44, (R)-3-Methyl-2-methylamino-pentanoic acid [(S)-1-[(6-amino-pyridin-3-ylmethyl)-carbamoyl]-2-(4-fluoro-phenyl)-ethyl]-amide] | 5.4 nM

The next compounds have a lower IC50 than those just listed; values first:

Row | IC50 | SMILES
22 | 2 nM | CC(C)N1CCC[C@@H]1C(=O)N[C@@H](Cc1ccc(F)c(F)c1)C(=O)NCc1ccc(N)nc1 [Example 6, (R)-1-Isopropyl-pyrrolidine-2-carboxylic acid [(S)-1-[(6-amino-pyridin-3-ylmethyl)-carbamoyl]-2-(3,4-difluoro-phenyl)-ethyl]-amide]
23 | 1.7 nM | CCC(C)[C@H](C(=O)N[C@@H](Cc1ccc(Cl)c(Cl)c1)C(=O)NCc1ccc(N)nc1)N(C)S(C)(=O)=O (stereo partly drawn) [Example 8, (R)-2-(Methanesulfonyl-methyl-amino)-3-methyl-pentanoic acid [(S)-1-[(6-amino-pyridin-3-ylmethyl)-carbamoyl]-2-(3,4-dichloro-phenyl)-ethyl]-amide]
24 | 0.96 nM | CC(C)[C@@H](N)C(=O)N[C@@H](CC1CCCC2CCCCC21)C(=O)NCc1ccc(N)nc1 (stereo partly drawn) [Example 14, (R)-2-Amino-N-[(S)-1-[(6-amino-pyridin-3-ylmethyl)-carbamoyl]-2-(decahydro-naphthalen-1-yl)-ethyl]-3-methyl-butyramide]
25 | 1.2 nM | Nc1ccc(CNC(=O)[C@H](CC2CCCC3CCCCC32)NC(=O)[C@H]2CCCN2)cn1 (stereo partly drawn) [Example 15, (R)-Pyrrolidine-2-carboxylic acid [(S)-1-[(6-amino-pyridin-3-ylmethyl)-carbamoyl]-2-(decahydro-naphthalen-1-yl)-ethyl]-amide]
26 | 1.1 nM | CC(C)C[C@@H](N)C(=O)N[C@@H](CC1CCCC2CCCCC21)C(=O)NCc1ccc(N)nc1 (stereo partly drawn) [Example 16, (R)-2-Amino-4-methyl-pentanoic acid [(S)-1-[(6-amino-pyridin-3-ylmethyl)-carbamoyl]-2-(decahydro-naphthalen-1-yl)-ethyl]-amide]
27 | 2.2 nM | CC(C)[C@@H](N)C(=O)N[C@@H](Cc1cccc2ccccc12)C(=O)NCc1ccc(N)nc1 [Example 22, (R)-2-Amino-N-{(S)-1-[(6-amino-pyridin-3-ylmethyl)-carbamoyl]-2-naphthalen-1-yl-ethyl}-3-methyl-butyramide]
28 | 0.47 nM | CCC(C)[C@@H](N)C(=O)N[C@@H](Cc1ccc(Cl)c(Cl)c1)C(=O)NCc1ccc(N)nc1 (stereo partly drawn) [Example 35, (R)-2-Amino-3-methyl-pentanoic acid [(S)-1-[(6-amino-pyridin-3-ylmethyl)-carbamoyl]-2-(3,4-dichloro-phenyl)-ethyl]-amide]
29 | 1.6 nM | CCC(C)[C@@H](N)C(=O)N[C@@H](Cc1ccc(Cl)cc1)C(=O)NCc1ccc(N)nc1 (stereo partly drawn) [Example 36, (R)-2-Amino-3-methyl-pentanoic acid [(S)-1-[(6-amino-pyridin-3-ylmethyl)-carbamoyl]-2-(4-chloro-phenyl)-ethyl]-amide]
30 | 0.76 nM | CCC(C)[C@@H](N)C(=O)N[C@@H](Cc1csc2ccccc12)C(=O)NCc1ccc(N)nc1 (stereo partly drawn) [Example 41, (R)-2-Amino-3-methyl-pentanoic acid {(S)-1-[(6-amino-pyridin-3-ylmethyl)-carbamoyl]-2-benzo[b]thiophen-3-yl-ethyl}-amide]
31 | 1.4 nM | CCC(C)[C@@H](NC)C(=O)N[C@@H](Cc1cccc(C(F)(F)F)c1)C(=O)NCc1ccc(N)nc1 (stereo partly drawn) [Example 42, (R)-3-Methyl-2-methylamino-pentanoic acid [(S)-1-[(6-amino-pyridin-3-ylmethyl)-carbamoyl]-2-(3-trifluoromethyl-phenyl)-ethyl]-amide]
